The test system of test [1] is MSCs encapsulated in PEG-4MAL hydrogels. The test is described as follows: RvD1 ELISA of media from MSCs encapsulated in PEG-4MAL hydrogels and treated with DHA. Format: cell-based. To be noted: 160 μM DHA, TCP and PEG-4MAL encapsulated MSCs. How it is done:
MSCs were cultured in Tissue Culture Plastic (TCP) or encapsulated in PEG-4MAL hydrogels. The 20 kDa four-arm PEG-4MAL was sourced from Laysan Bio (Item #: 4arm-PEG-20K-5g). A solution of 4% w/v PEG in a 0.5 M (pH=7) MES buffer was prepared. The two peptides, RGD (GCGYGRGDSPG; SEQ ID NO: 1) for functionalization of the gel and VPM (GCRDVPMSMRGGDRCG; SEQ ID NO: 2) for crosslinking were also dissolved in the 0.5 M MES buffer. The hydrogels were prepared using a 2:1:1:1 volume ratio of PEG: RGD: cells/PBS: VPM. The 4% PEG translates to 2 mM in the hydrogel prepared from a 5 mM PEG stock solution. Based on the concentration of maleimides per PEG molecule (8 mM maleimide in 2 mM PEG-4MAL) the RGD concentration was 0.768 mM final concentration in the gel (from a 3.84 mM stock and accounting for ˜96% purity) and the VPM concentration required to cross-link the remaining maleimides in the PEG was 3.456 mM final in the gel (17.28 mM stock). […]
MSCs were treated with 160 μM DHA in the hydrogels in three different conditions. […] Samples of cell culture media were taken incrementally over a period of five days and Resolvin D1 levels were measured via ELISA assay. In addition, samples of the cell culture medium were taken 24 hours after treatment for each group and these samples were analyzed by LCMS (Wayne State University Lipidomics core facility).
On the technique in general: An ELISA detects its analyte on a solid surface through an enzyme-linked reagent.

A further test relates to OA progression. To be noted: mice, repeated intra-articular injections into knee joints; cited from earlier work.

Turning to `CC/C=C\C/C=C\C/C=C\C/C=C\C/C=C\C/C=C\CCC(=O)O` [DHA, docosahexaenoic acid], the “Duration of continued RvD1 production” value in test [1] is “at least 120 hours”.

Consider `CC/C=C\C[C@H](O)/C=C/C=C\C=C\C=C\[C@@H](O)[C@@H](O)C/C=C\CCC(=O)O` [Resolvin D1], for which, in the test on OA progression, the OA progression entry was “attenuate OA progression”.
